According to US20110257210A1, “BENZIMIDAZOLE DERIVATIVES AND THEIR USE FOR MODULATING THE GABAA RECEPTOR COMPLEX” (NEUROSEARCH A/S, priority 2008, published 2011):

Target: benzodiazepine binding site on GABAA receptors (rat cerebral cortex membranes)
Assay: In vitro inhibition of 3H-flunitrazepam (3H-FNM) binding
Conditions: inhibition of specific binding of 3H-FNM (1 nM), cerebral cortex membranes from male Wistar rats, 40 min at 2° C.
Procedure: In Vitro Inhibition of ^3H-flunitrazepam (^3H-FNM) Binding
The GABA recognition site and the benzodiazepine modulatory unit can selectively be labelled with ^3H-flunitrazepam.
Preparations are performed at 0-4° C. unless otherwise indicated. Cerebral cortex from male Wistar rats (150-200 g) is homogenised for 5-10 sec in 20 ml Tris-HCl (30 mM, pH 7.4) using an Ultra-Turrax homogeniser. The suspension is centrifuged at 27,000×g for 15 min and the pellet is washed three times with buffer (centrifuged at 27,000×g for 10 min). The washed pellet is homogenized in 20 ml of buffer and incubated on a water bath (37° C.) for 30 min to remove endogenous GABA and then centrifuged for 10 min at 27,000×g. The pellet is then homogenized in buffer and centrifuged for 10 min at 27,000×g. The final pellet is resuspended in 30 ml buffer and the preparation is frozen and stored at −20° C.
The membrane preparation is thawed and centrifuged at 2° C. for 10 min at 27,000×g. The pellet is washed twice with 20 ml 50 mM Tris-citrate, pH 7.1 using an Ultra-Turrax homogeniser and centrifuged for 10 min at 27,000×g. The final pellet is resuspended in 50 mM Tris-citrate, pH 7.1 (500 ml buffer per g of original tissue), and then used for binding assays. Aliquots of 0.5 ml tissue are added to 25 μl of test solution and 25 μl of ^3H-FNM (1 nM, final concentration), mixed and incubated for 40 min at 2° C. Non-specific binding is determined using Clonazepam (1 μM, final concentration). After incubation the samples are added 5 ml of ice-cold buffer and poured directly onto Whatman GF/C glass fibre filters under suction and immediately washed with 5 ml ice-cold buffer. The amount of radioactivity on the filters is determined by conventional liquid scintillation counting. Specific binding is total binding minus non-specific binding.
25-75% inhibition of specific binding must be obtained, before calculation of an IC50.
The test value will be given as IC50 (the concentration (μM) of the test substance which inhibits the specific binding of ^3H-FNM by 50%).
Co is specific binding in control assays, and
CX is the specific binding in the test assay.
(The calculations assume normal mass-action kinetics).

Question: `CC(C)(O)c1ccc2c(c1)ncn2-c1ccc(F)c(-c2cccnc2F)c1` [Compound 7a, 2-{1-[4-Fluoro-3-(2-fluoro-pyridin-3-yl)-phenyl]-1H-benzoimidazol-5-yl}-propan-2-ol] was tested. Which IC50 did it give?
Answer: Its IC50 is 1.6 nM.

Question: `CC(C)(O)c1ccc2c(c1)ncn2-c1ccc(F)c(-c2cccnc2Cl)c1` [Compound 7b, 2-{1-[3-(2-Chloro-pyridin-3-yl)-4-fluoro-phenyl]-1H-benzoimidazol-5-yl}-propan-2-ol] was tested. Which IC50 did it give?
Answer: The IC50 was 1.9 nM.

Question: Which IC50 does the source give for `CC(C)(O)c1ccc2c(c1)ncn2-c1ccc(F)c(-c2ccncc2Cl)c1` [Compound 7c, 2-{1-[3-(3-Chloro-pyridin-4-yl)-4-fluoro-phenyl]-1H-benzoimidazol-5-yl}-propan-2-ol] here?
Answer: The IC50 was 0.64 nM.

Question: For `COc1ncccc1-c1cc(-n2cnc3cc(C(C)(C)O)ccc32)ccc1F` [Compound 7d, 2-{1-[4-Fluoro-3-(2-methoxy-pyridin-3-yl)-phenyl]-1H-benzoimidazol-5-yl}-propan-2-ol], which IC50 is on record?
Answer: Its IC50 is 0.29 nM.

Question: With `CC(C)(O)c1ccc2c(c1)ncn2-c1ccc(F)c(-c2ccncc2F)c1` [Compound 7e, 2-{1-[4-Fluoro-3-(3-fluoro-pyridin-4-yl)-phenyl]-1H-benzoimidazol-5-yl}-propan-2-ol] as the compound, how does the IC50 read?
Answer: Its IC50 is 1.1 nM.

Question: `CC(C)(O)c1ccc2c(c1)ncn2-c1ccc(F)c(-c2ccnc(Cl)c2F)c1` [Compound 7f, 2-{1-[3-(2-Chloro-3-fluoro-pyridin-4-yl)-4-fluoro-phenyl]-1H-benzoimidazol-5-yl}-propan-2-ol] was tested. Which IC50 did it give?
Answer: The IC50 was 2.5 nM.

Question: How did the IC50 turn out when `CC(C)(O)c1ccc2c(c1)ncn2-c1ccc(F)c(-c2cncc(C#N)c2)c1` [Compound 7g, 5-{2-Fluoro-5-[5-(1-hydroxy-1-methyl-ethyl)-benzoimidazol-1-yl-]-phenyl}-nicotinonitrile] was run?
Answer: The IC50 was 99 nM.

Question: For `COc1ncc(-c2cc(-n3cnc4cc(C(C)(C)O)ccc43)ccc2F)c(OC)n1` [Compound 7h, 2-{1-[3-(2,4-Dimethoxy-pyrimidin-5-yl)-4-fluoro-phenyl]-1H-benzoimidazol-5-yl}-propan-2-ol], which IC50 is on record?
Answer: Its IC50 is 0.77 nM.

Question: `CC(C)(O)c1ccc2c(c1)ncn2-c1ccc(F)c(-c2ccncc2C#N)c1` [Compound 7i, 4-{2-Fluoro-5-[5-(1-hydroxy-1-methyl-ethyl)-benzoimidazol-1-yl]-phenyl}-nicotinonitrile] was tested. Which IC50 did it give?
Answer: Its IC50 is 1.1 nM.
